# Data as given in ChEMBL document CHEMBL3994622, “Design and synthesis of new RAF kinase-inhibiting antiproliferative quinoline derivatives. Part 2: Diarylurea derivatives” (Eur J Med Chem, 2017).
# Columns and labels:
# Assay type in all cases: functional
# [1] = tested on: K562; assay: Growth inhibition of human K562 cells assessed as cell growth at 0.01 uM incubated for 48 hrs by sulforhodamine B assay relative to control; settings: K562, 48 h, read-out: Activity
# [2] = tested on: NCI-H23; assay: Growth inhibition of human NCI-H23 cells assessed as cell growth at 0.01 uM incubated for 48 hrs by sulforhodamine B assay relative to control; settings: NCI-H23, 48 h, read-out: Activity
# [3] = tested on: RPMI-8226; assay: Growth inhibition of human RPMI8226 cells assessed as cell growth at 0.1 uM incubated for 48 hrs by sulforhodamine B assay relative to control; settings: RPMI-8226, 48 h, read-out: Activity
# [4] = tested on: HCT-116; assay: Growth inhibition of human HCT116 cells assessed as cell growth at 0.1 uM incubated for 48 hrs by sulforhodamine B assay relative to control; settings: HCT-116, 48 h, read-out: Activity
# [5] = tested on: OVCAR-5; assay: Growth inhibition of human OVCAR5 cells assessed as cell growth at 0.1 uM incubated for 48 hrs by sulforhodamine B assay relative to control; settings: OVCAR-5, 48 h, read-out: Activity
# [6] = tested on: MCF7; assay: Growth inhibition of human MCF7 cells assessed as cell growth at 0.1 uM incubated for 48 hrs by sulforhodamine B assay relative to control; settings: MCF7, 48 h, read-out: Activity
# [7] = tested on: HOP-62; assay: Growth inhibition of human HOP62 cells assessed as cell growth at 1 uM incubated for 48 hrs by sulforhodamine B assay relative to control; settings: HOP-62, 48 h, read-out: Activity
# [8] = tested on: SF-295; assay: Growth inhibition of human SF295 cells assessed as cell growth at 1 uM incubated for 48 hrs by sulforhodamine B assay relative to control; settings: SF-295, 48 h, read-out: Activity
# [9] = tested on: SK-MEL-28; assay: Growth inhibition of human SK-MEL-28 cells assessed as cell growth at 1 uM incubated for 48 hrs by sulforhodamine B assay relative to control; settings: SK-MEL-28, 48 h, read-out: Activity
# [10] = tested on: OVCAR-5; assay: Growth inhibition of human OVCAR5 cells assessed as cell growth at 1 uM incubated for 48 hrs by sulforhodamine B assay relative to control; settings: OVCAR-5, 48 h, read-out: Activity
# [11] = tested on: CAKI-1; assay: Growth inhibition of human Caki1 cells assessed as cell growth at 1 uM incubated for 48 hrs by sulforhodamine B assay relative to control; settings: CAKI-1, 48 h, read-out: Activity
# [12] = tested on: COLO 205; assay: Growth inhibition of human COLO205 cells assessed as cell growth at 10 uM incubated for 48 hrs by sulforhodamine B assay relative to control; settings: COLO 205, 48 h, read-out: Activity
# [13] = tested on: SNB-19; assay: Growth inhibition of human SNB19 cells assessed as cell growth at 10 uM incubated for 48 hrs by sulforhodamine B assay relative to control; settings: SNB-19, 48 h, read-out: Activity
# [14] = tested on: SK-MEL-28; assay: Growth inhibition of human SK-MEL-28 cells assessed as cell growth at 10 uM incubated for 48 hrs by sulforhodamine B assay relative to control; settings: SK-MEL-28, 48 h, read-out: Activity
# [15] = tested on: CAKI-1; assay: Growth inhibition of human Caki1 cells assessed as cell growth at 10 uM incubated for 48 hrs by sulforhodamine B assay relative to control; settings: CAKI-1, 48 h, read-out: Activity
# [16] = tested on: Hs-578T; assay: Growth inhibition of human Hs 578T cells assessed as cell growth at 10 uM incubated for 48 hrs by sulforhodamine B assay relative to control; settings: read-out: Activity
# [17] = tested on: MOLT-4; assay: Growth inhibition of human MOLT4 cells assessed as cell growth at 100 uM incubated for 48 hrs by sulforhodamine B assay relative to control; settings: MOLT-4, 48 h, read-out: Activity
# [18] = tested on: HOP-92; assay: Growth inhibition of human HOP92 cells assessed as cell growth at 100 uM incubated for 48 hrs by sulforhodamine B assay relative to control; settings: HOP-92, 48 h, read-out: Activity
# [19] = tested on: HT-29; assay: Growth inhibition of human HT-29 cells assessed as cell growth at 100 uM incubated for 48 hrs by sulforhodamine B assay relative to control; settings: HT-29, 48 h, read-out: Activity
# [20] = tested on: OVCAR-8; assay: Growth inhibition of human OVCAR8 cells assessed as cell growth at 100 uM incubated for 48 hrs by sulforhodamine B assay relative to control; settings: OVCAR-8, 48 h, read-out: Activity
# [21] = tested on: NCI-H522; assay: Growth inhibition of human NCI-H522 cells assessed as cell growth at 0.003 uM incubated for 48 hrs by sulforhodamine B assay relative to control; settings: NCI-H522, 48 h, read-out: Activity
# [22] = tested on: IGROV-1; assay: Growth inhibition of human IGROV1 cells assessed as cell growth at 0.003 uM incubated for 48 hrs by sulforhodamine B assay relative to control; settings: IGROV-1, 48 h, read-out: Activity
# [23] = tested on: UO-31; assay: Growth inhibition of human UO31 cells assessed as cell growth at 0.003 uM incubated for 48 hrs by sulforhodamine B assay relative to control; settings: UO-31, 48 h, read-out: Activity
# [24] = tested on: CCRF-CEM; assay: Growth inhibition of human CCRF-CEM cells assessed as cell growth at 0.03 uM incubated for 48 hrs by sulforhodamine B assay relative to control; settings: read-out: Activity
# [25] = tested on: NCI-H23; assay: Growth inhibition of human NCI-H23 cells assessed as cell growth at 0.03 uM incubated for 48 hrs by sulforhodamine B assay relative to control; settings: NCI-H23, 48 h, read-out: Activity
# [26] = tested on: OVCAR-8; assay: Growth inhibition of human OVCAR8 cells assessed as cell growth at 0.03 uM incubated for 48 hrs by sulforhodamine B assay relative to control; settings: OVCAR-8, 48 h, read-out: Activity
# [27] = tested on: HCT-15; assay: Growth inhibition of human HCT15 cells assessed as cell growth at 0.3 uM incubated for 48 hrs by sulforhodamine B assay relative to control; settings: HCT-15, 48 h, read-out: Activity
# [28] = tested on: UACC-257; assay: Growth inhibition of human UACC257 cells assessed as cell growth at 0.3 uM incubated for 48 hrs by sulforhodamine B assay relative to control; settings: UACC-257, 48 h, read-out: Activity
# [29] = tested on: OVCAR-4; assay: Growth inhibition of human OVCAR4 cells assessed as cell growth at 0.3 uM incubated for 48 hrs by sulforhodamine B assay relative to control; settings: OVCAR-4, 48 h, read-out: Activity
# [30] = tested on: NCI-H226; assay: Growth inhibition of human NCI-H226 cells assessed as cell growth at 3 uM incubated for 48 hrs by sulforhodamine B assay relative to control; settings: NCI-H226, 48 h, read-out: Activity
# [31] = tested on: COLO 205; assay: Growth inhibition of human COLO205 cells assessed as cell growth at 3 uM incubated for 48 hrs by sulforhodamine B assay relative to control; settings: COLO 205, 48 h, read-out: Activity
# [32] = tested on: HCT-116; assay: Growth inhibition of human HCT116 cells assessed as cell growth at 3 uM incubated for 48 hrs by sulforhodamine B assay relative to control; settings: HCT-116, 48 h, read-out: Activity
# [33] = tested on: MCF7; assay: Growth inhibition of human MCF7 cells assessed as cell growth at 3 uM incubated for 48 hrs by sulforhodamine B assay relative to control; settings: MCF7, 48 h, read-out: Activity
# [34] = tested on: COLO 205; assay: Growth inhibition of human COLO205 cells assessed as cell growth at 30 uM incubated for 48 hrs by sulforhodamine B assay relative to control; settings: COLO 205, 48 h, read-out: Activity
SMILES,growth at 0.01 µM [1],growth at 0.01 µM [2],growth at 0.1 µM [3],growth at 0.1 µM [4],growth at 0.1 µM [5],growth at 0.1 µM [6],growth at 1 µM [7],growth at 1 µM [8],growth at 1 µM [9],growth at 1 µM [10],growth at 1 µM [11],growth at 10 µM [12],growth at 10 µM [13],growth at 10 µM [14],growth at 10 µM [15],growth at 10 µM [16],growth at 100 µM [17],growth at 100 µM [18],growth at 100 µM [19],growth at 100 µM [20],other results
COc1cc2cc(Oc3ccc(NC(=O)Nc4ccc(Cl)c(Cl)c4)cc3)c(C)nc2cc1OC,108%,98%,101%,102%,104%,92%,101%,80%,97%,116%,83%,-25%,25%,16%,-18%,-2%,-12%,-100%,-100%,-100%,–
COc1cc2cc(Oc3ccc(NC(=O)Nc4ccc(Cl)c(C(F)(F)F)c4)cc3)c(C)nc2cc1OC,–,–,–,–,–,–,–,–,–,–,–,–,–,–,–,–,–,–,–,–,growth at 0.003 µM [21]: 91%; growth at 0.003 µM [22]: 107%; growth at 0.003 µM [23]: 87%; growth at 0.03 µM [24]: 103%; growth at 0.03 µM [25]: 93%; growth at 0.03 µM [26]: 94%; growth at 0.3 µM [27]: 91%; growth at 0.3 µM [28]: 83%; growth at 0.3 µM [29]: 94%; growth at 3 µM [30]: 11%; growth at 3 µM [31]: -67%; growth at 3 µM [32]: 7%; growth at 3 µM [33]: 7%; growth at 30 µM [34]: -92%
COc1cc2cc(Oc3ccc(NC(=O)Nc4cc(C(F)(F)F)cc(C(F)(F)F)c4)cc3)c(C)nc2cc1OC,110%,99%,93%,106%,92%,92%,70%,31%,59%,93%,63%,-74%,-79%,-61%,-26%,-19%,-42%,-58%,-90%,-43%,–
Cc1nc2cc(O)c(O)cc2cc1Oc1ccc(NC(=O)Nc2ccc(Cl)c(Cl)c2)cc1,–,–,–,–,–,–,–,–,–,–,–,–,–,–,–,–,–,–,–,–,growth at 0.003 µM [21]: 95%; growth at 0.003 µM [22]: 104%; growth at 0.003 µM [23]: 91%; growth at 0.03 µM [24]: 95%; growth at 0.03 µM [25]: 92%; growth at 0.03 µM [26]: 93%; growth at 0.3 µM [27]: 101%; growth at 0.3 µM [28]: 92%; growth at 0.3 µM [29]: 94%; growth at 3 µM [30]: 102%; growth at 3 µM [31]: 85%; growth at 3 µM [32]: 42%; growth at 3 µM [33]: 87%; growth at 30 µM [34]: 16%
